Assay results from ChEMBL document CHEMBL1201862, “PubChem BioAssay data set” (2004).
Several values for one entry are separate records, joined by “and”; a condition that tells them apart may be missing. Identical values can stand only once.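 1) Cells in 96-well plates. 2) Compound, 48 h, 5 concentrations. 3) Linear interpolation between surrounding doses. 4) Unreached endpoint = highest concentration. GI50 = concentration required for 50% inhibition of growth.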 Activity calls are given as the source filed them. Rule as the data show it: active = GI50 up to about 1.1 µM and inactive = higher.

Tests used:
Test in all cases: NCI tumour cell line growth inhibition, 48 h
[1] = test system: RXF 393
[2] = test system: K562
[3] = test system: SF-295
[4] = test system: OVCAR-5
[5] = test system: IGROV-1
[6] = test system: A498
[7] = test system: OVCAR-8
[8] = test system: HOP-62
[9] = test system: DU-145
[10] = test system: 786-0
[11] = test system: M14
[12] = test system: CAKI-1
[13] = test system: MCF7
[14] = test system: Hs-578T
[15] = test system: NCI/ADR-RES
[16] = test system: SF-268
[17] = test system: MDA-N
[18] = test system: PC-3
[19] = test system: HCC 2998
[20] = test system: T47D
[21] = test system: SW-620
[22] = test system: LOX IMVI
[23] = test system: NCI-H522
[24] = test system: MDA-MB-435
[25] = test system: SK-MEL-2
[26] = test system: HT-29
[27] = test system: NCI-H460
[28] = test system: SK-MEL-28
[29] = test system: EKVX
[30] = test system: UO-31
[31] = test system: SF-539
[32] = test system: UACC-257
[33] = test system: ACHN
[34] = test system: UACC-62
[35] = test system: KM12
[36] = test system: U-251
[37] = test system: OVCAR-3
[38] = test system: SK-OV-3
[39] = test system: HCT-15
[40] = test system: HCT-116
[41] = test system: TK-10
[42] = test system: Malme-3M
[43] = test system: COLO 205
[44] = test system: SNB-19
[45] = test system: HOP-92
[46] = test system: MDA-MB-231
[47] = test system: MOLT-4
[48] = test system: SN12C
[49] = test system: OVCAR-4
[50] = test system: SK-MEL-5
[51] = test system: RPMI-8226
[52] = test system: HL-60
[53] = test system: A549
[54] = test system: CCRF-CEM
[55] = test system: NCI-H226
[56] = test system: NCI-H23
[57] = test system: BT-549
[58] = test system: SR
[59] = test system: SNB-75

CCOC(=O)c1nc(SC)sc1NC(=O)c1ccc(OC)cc1
GI50 [1]: 33.4 µM (inactive)
GI50 [2]: > 100 µM (inactive)
GI50 [3]: > 100 µM (inactive)
GI50 [4]: > 100 µM (inactive)
GI50 [5]: > 100 µM (inactive)
GI50 [6]: 15.8 µM (inactive)
GI50 [7]: 58.7 µM (inactive)
GI50 [8]: 34.7 µM (inactive)
GI50 [9]: > 100 µM (inactive)
GI50 [10]: 20.5 µM (inactive)
GI50 [11]: > 100 µM (inactive)
GI50 [12]: > 100 µM (inactive)
GI50 [13]: 46.5 µM (inactive)
GI50 [14]: > 100 µM (inactive)
GI50 [15]: > 100 µM (inactive)
GI50 [16]: > 100 µM (inactive)
GI50 [17]: > 100 µM (inactive)
GI50 [18]: > 100 µM (inactive)
GI50 [19]: 43.6 µM (inactive)
GI50 [20]: 98.2 µM (inactive)
GI50 [21]: 49.1 µM (inactive)
GI50 [22]: > 100 µM (inactive)
GI50 [23]: > 100 µM (inactive)
GI50 [24]: > 100 µM (inactive)
GI50 [25]: > 100 µM (inactive)
GI50 [26]: 66.2 µM (inactive)
GI50 [27]: 35.6 µM (inactive)
GI50 [28]: 75 µM (inactive)
GI50 [29]: > 100 µM (inactive)
GI50 [30]: > 100 µM (inactive)
GI50 [31]: 16.4 µM (inactive)
GI50 [32]: > 100 µM (inactive)
GI50 [33]: 47.8 µM (inactive)
GI50 [34]: > 100 µM (inactive)
GI50 [35]: > 100 µM (inactive)
GI50 [36]: 23.9 µM (inactive)
GI50 [37]: > 100 µM (inactive)
GI50 [38]: 63.1 µM (inactive)
GI50 [39]: > 100 µM
GI50 [40]: 19.5 µM (inactive)
GI50 [41]: 21.1 µM (inactive)
GI50 [42]: 35.3 µM (inactive)
GI50 [43]: 28.8 µM (inactive)
GI50 [44]: 75.7 µM (inactive)
GI50 [45]: > 100 µM (inactive)
GI50 [46]: 35.2 µM (inactive)
GI50 [47]: > 100 µM (inactive)
GI50 [48]: 37.9 µM (inactive)
GI50 [49]: 29.2 µM (inactive)
GI50 [50]: > 100 µM (inactive)
GI50 [51]: > 100 µM (inactive)
GI50 [52]: > 100 µM (inactive)
GI50 [53]: 29.7 µM (inactive)
GI50 [54]: > 100 µM (inactive)
GI50 [55]: 28.1 µM (inactive)
GI50 [56]: > 100 µM (inactive)

COc1cc(-c2c(C(C)=O)c(-c3ccccc3)n(C3OC(COC(C)=O)C(OC(C)=O)C(OC(C)=O)C3OC(C)=O)c(=S)c2C#N)ccc1O (stereo not drawn)
GI50 [1]: > 100 µM (inactive) and 78.5 µM (inactive)
GI50 [2]: > 100 µM (inactive)
GI50 [3]: > 100 µM (inactive)
GI50 [4]: > 100 µM (inactive)
GI50 [6]: > 100 µM (inactive)
GI50 [8]: > 100 µM (inactive)
GI50 [9]: 55.3 µM (inactive) and 58.1 µM (inactive)
GI50 [10]: > 100 µM (inactive)
GI50 [11]: > 100 µM (inactive)
GI50 [12]: > 100 µM (inactive)
GI50 [13]: > 100 µM (inactive) and 81.5 µM (inactive)
GI50 [14]: 70.6 µM (inactive)
GI50 [15]: > 100 µM (inactive)
GI50 [16]: > 100 µM (inactive)
GI50 [17]: 33 µM (inactive) and 49.8 µM (inactive)
GI50 [18]: 46.8 µM (inactive) and 65.6 µM (inactive)
GI50 [57]: 33.1 µM (inactive)
GI50 [21]: > 100 µM (inactive)
GI50 [22]: > 100 µM (inactive) and 66.5 µM (inactive)
GI50 [24]: 57.1 µM (inactive) and 35.4 µM (inactive)
GI50 [26]: 76.6 µM (inactive) and 76.9 µM (inactive)
GI50 [27]: 75.5 µM (inactive)
GI50 [28]: > 100 µM (inactive)
GI50 [29]: 57.4 µM (inactive)
GI50 [30]: > 100 µM (inactive) and 55.1 µM (inactive)
GI50 [33]: 55.3 µM (inactive)
GI50 [34]: 59.2 µM (inactive)
GI50 [35]: 71.6 µM (inactive) and 89.5 µM (inactive)
GI50 [36]: > 100 µM (inactive)
GI50 [39]: > 100 µM
GI50 [40]: 70.8 µM (inactive)
GI50 [58]: > 100 µM (inactive)
GI50 [43]: 97.1 µM (inactive)
GI50 [44]: > 100 µM (inactive)
GI50 [45]: 36.6 µM (inactive)
GI50 [47]: 58.9 µM (inactive) and 60.1 µM (inactive)
GI50 [48]: > 100 µM (inactive)
GI50 [49]: > 100 µM (inactive)
GI50 [50]: 37.2 µM (inactive) and 72.4 µM (inactive)
GI50 [53]: > 100 µM (inactive) and 88.7 µM (inactive)
GI50 [54]: 58.3 µM (inactive)
GI50 [56]: 72.8 µM (inactive)

CN(C)CCNC(=O)c1cccc2c(NC(CCC(N)=O)C(=O)O)c3ccccc3nc12 (stereo not drawn)
GI50 [2]: 4.4 µM (inactive)
GI50 [3]: 5.64 µM (inactive)
GI50 [4]: 9.51 µM (inactive)
GI50 [5]: 5.25 µM (inactive)
GI50 [6]: 16.2 µM (inactive)
GI50 [7]: 9.18 µM (inactive)
GI50 [8]: 6.4 µM (inactive)
GI50 [9]: 19.5 µM (inactive)
GI50 [10]: 9.84 µM (inactive)
GI50 [59]: 13.4 µM (inactive)
GI50 [11]: 7.55 µM (inactive)
GI50 [12]: 11.3 µM (inactive)
GI50 [13]: 4.55 µM (inactive)
GI50 [15]: 9.98 µM (inactive)
GI50 [16]: 5.14 µM (inactive)
GI50 [17]: 8.73 µM (inactive)
GI50 [18]: 5.43 µM (inactive)
GI50 [57]: 10.5 µM (inactive)
GI50 [19]: 12.5 µM (inactive)
GI50 [21]: 4.55 µM (inactive)
GI50 [22]: 5.48 µM (inactive)
GI50 [23]: 5.75 µM (inactive)
GI50 [24]: 6.14 µM (inactive)
GI50 [25]: 11.9 µM (inactive)
GI50 [26]: 4.67 µM (inactive)
GI50 [27]: 11.1 µM (inactive)
GI50 [28]: 12.5 µM (inactive)
GI50 [29]: 14.5 µM (inactive)
GI50 [30]: 1.55 µM (inactive)
GI50 [31]: 5.55 µM (inactive)
GI50 [32]: 8.2 µM (inactive)
GI50 [33]: 3.37 µM (inactive)
GI50 [34]: 19.9 µM (inactive)
GI50 [35]: 7.78 µM (inactive)
GI50 [36]: 8.15 µM (inactive)
GI50 [37]: 12.6 µM (inactive)
GI50 [38]: 9.95 µM (inactive)
GI50 [39]: 4.08 µM
GI50 [40]: 6.03 µM (inactive)
GI50 [41]: 34.1 µM (inactive)
GI50 [42]: 5.56 µM (inactive)
GI50 [58]: > 100 µM (inactive)
GI50 [43]: 4.8 µM (inactive)
GI50 [44]: 3.49 µM (inactive)
GI50 [45]: 14.5 µM (inactive)
GI50 [46]: 7.66 µM (inactive)
GI50 [47]: 3.29 µM (inactive)
GI50 [48]: 10.4 µM (inactive)
GI50 [49]: 16.1 µM (inactive)
GI50 [50]: 10.6 µM (inactive)
GI50 [51]: 9.57 µM (inactive)
GI50 [53]: 5.08 µM (inactive)
GI50 [54]: 18.5 µM (inactive)
GI50 [55]: 4.95 µM (inactive)
GI50 [56]: 3.45 µM (inactive)
